For this assay, the system named is pseudomonas aerigenosa (ATCC 27853) biofilm. Put plainly: Biofouling test on enhanced tube and smooth tube in laboratory scale cooling tower system (modified P-U-L-S-E fouling monitor). In kind it is cell-based.

Structures are written as SMILES. Entries after “also recorded” stand apart in the source; their conditions may differ.

Consider `BrBr` [bromine, reference compound], for which the “effect on inhibiting and/or removing biofilm” value is “little effect” and the “reduction of biofilm deposits (summary of test results)” value is recorded as “not effective alone”.

For the compound `[O][Cl+][O-]` [chlorine dioxide], the “effect on inhibiting and/or removing biofilm” value is recorded as “effective; also recorded: more effective than stabilized bromine” and the “reduction of biofilm deposits (summary of test results)” value is on record as “reduce the deposit of biofilm”.
